Measurements from ChEMBL document CHEMBL5034023, “Development of Multifunctional and Orally Active Cyclic Peptide Agonists of Opioid/Neuropeptide FF Receptors that Produce Potent, Long-Lasting, and Peripherally Restricted Antinociception with Diminished Side Effects” (J Med Chem, 2021).
Activity calls are given as the source filed them. Bridge positions count the residues as written; N and C are the ends. Square brackets hold non-standard residues; d marks the D form. Peptide text beside a SMILES is read from it. NMeF = CN[C@@H](Cc1ccccc1)C(=O)O

Columns and labels:
[1] = Toxicity in Kunming mouse assessed as effect on motor coordination at 86.8 to 868.1 nmol/kg, po measured after 10 to 40 mins by Rotarod test; format: organism-based; conditions: in vivo, dose lower 86.8 nmol/kg, time lower 10 min, dose upper 868.1 nmol/kg, time upper 40 min
[2] = target: Neuropeptide FF receptor 1 (Homo sapiens, UniProt Q9GZQ6); test: Agonist activity at NPFF1R (unknown origin) expressed in HEK293-A cells assessed as inhibition of forskolin-induced cAMP accumulation preincubated for 30 mins in presence of 3-isobutyl-1-methylxanthine followed by forskolin and compound addition by competitive PKA binding assay; format: functional, cell-based
Chain of Neuropeptide FF receptor 1 (Q9GZQ6 whole entry): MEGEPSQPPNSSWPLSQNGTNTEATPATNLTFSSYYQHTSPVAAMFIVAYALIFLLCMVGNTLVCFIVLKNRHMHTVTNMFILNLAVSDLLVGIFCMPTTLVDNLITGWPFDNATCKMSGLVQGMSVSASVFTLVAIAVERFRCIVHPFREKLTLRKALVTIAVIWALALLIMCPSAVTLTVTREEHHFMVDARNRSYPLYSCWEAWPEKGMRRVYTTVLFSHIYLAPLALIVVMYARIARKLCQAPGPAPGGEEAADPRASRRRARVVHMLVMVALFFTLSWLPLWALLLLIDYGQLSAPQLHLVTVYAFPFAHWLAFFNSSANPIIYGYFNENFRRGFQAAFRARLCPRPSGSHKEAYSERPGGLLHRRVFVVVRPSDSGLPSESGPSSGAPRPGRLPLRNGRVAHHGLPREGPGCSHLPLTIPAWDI

[3] = Toxicity in Kunming mouse assessed as inhibition of gastrointestinal transit at 8681 nmol/kg, po measured after 30 mins by charcoal meal test relative to control; format: organism-based; design: scale not given: the % may be the effect or the level left; conditions: in vivo, 0.5 h
[4] = Toxicity in Kunming mouse assessed as effect on locomotor activity at 86.8 to 868.1 nmol/kg, po measured for 150 mins by open field test; format: organism-based; conditions: in vivo, 2.5 h, dose 86.8-868.1 nmol/kg
Mus musculus [5] = test: Antinociceptive activity against Kunming mouse model of thermal-induced nociception assessed as maximum possible effect at 8.68 nmol/kg, po measured after 20 min by tail flick test relative to control; format: functional
[6] = target: T1, Delta-type opioid receptor (Homo sapiens, UniProt P41143); test: Agonist activity at DOR (unknown origin) expressed in HEK293-A cells assessed as inhibition of forskolin-induced cAMP accumulation preincubated for 30 mins in presence of 3-isobutyl-1-methylxanthine followed by forskolin and compound addition by competitive PKA binding assay relative to control; format: functional, cell-based; conditions: filed as agonist
T1 sequence (P41143 whole entry): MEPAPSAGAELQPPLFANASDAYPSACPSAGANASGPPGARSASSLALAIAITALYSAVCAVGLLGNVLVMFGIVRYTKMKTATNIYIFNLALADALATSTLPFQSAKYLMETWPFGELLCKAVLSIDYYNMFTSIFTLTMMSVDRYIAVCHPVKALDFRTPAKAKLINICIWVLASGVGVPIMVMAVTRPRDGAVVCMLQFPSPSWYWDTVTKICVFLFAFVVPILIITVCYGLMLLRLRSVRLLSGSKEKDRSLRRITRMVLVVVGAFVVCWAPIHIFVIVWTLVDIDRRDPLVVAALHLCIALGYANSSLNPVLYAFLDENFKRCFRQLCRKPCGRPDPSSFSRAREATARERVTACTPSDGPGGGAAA

[7] = Toxicity in Kunming mouse assessed as inhibition of gastrointestinal transit at 868.1 nmol/kg, po in presence of RF9 at 10 mg/kg, ip measured after 30 mins by charcoal meal test; format: organism-based; conditions: in vivo, 0.5 h
[8] = Half life in Kunming mouse at 868.1 nmol/kg, po measured up to 120 mins by LC-MS/MS analysis; format: ADME, organism-based; conditions: in vivo
Mus musculus [9] = test: Antinociceptive activity against Kunming mouse model of thermal-induced nociception assessed as prolongation of tail-flick latency period at 2 pmol, icv in presence of Nal measured up to 240 mins by tail-flick test; format: functional, organism-based; conditions: time min <=240
Mus musculus [10] = test: Antinociceptive activity against Kunming mouse model of thermal-induced nociception assessed as peripheral analgesia administered subcutaneously by tail-flick test; format: functional; conditions: sc
[11] = Toxicity in Kunming mouse assessed as effect on conditioned place preference at 868.1 nmol/kg, po measured for 5 days; format: organism-based; conditions: in vivo, 120 h, time 5 day
Mus musculus [12] = test: Antinociceptive activity against Kunming mouse model of thermal-induced nociception assessed as prolongation of tail-flick latency period at 2 pmol, icv in presence of nor-BNI measured up to 240 mins by tail-flick test; format: functional, organism-based; conditions: time min <=240
[13] = Toxicity in naloxone-induced withdrawal symptoms in Kunming mouse assessed as effect on jumping response at 17 to 870 nmol/kg, po for every 8 hrs followed by naloxone stimulation and measured for 3 days; format: organism-based; conditions: in vivo, 72 h, dose 17-870 nmol/kg, time 3 day
[14] = Toxicity in Kunming mouse assessed as effect on arterial bicarbonate level at 868.1 nmol/kg, po measured up to 30 mins by blood gas analyzer; format: organism-based; conditions: in vivo, 0.5 h
Mus musculus [15] = test: Antinociceptive activity against Kunming mouse model of thermal-induced nociception assessed as prolongation of tail-flick latency period at 8.68 nmol/kg, sc in presence of NALM at 5 nmol/kg, icv measured up to 240 mins by tail-flick test; format: functional, organism-based; conditions: time min <=240
[16] = target: Neuropeptide FF receptor 2 (Homo sapiens, UniProt Q9Y5X5); test: Agonist activity at NPFF2R (unknown origin) expressed in HEK293-A cells assessed as inhibition of forskolin-induced cAMP accumulation by measuring maximal efficacy preincubated for 30 mins in presence of 3-isobutyl-1-methylxanthine followed by forskolin and compound addition by competitive PKA binding assay relative to control; format: functional, cell-based; conditions: filed as agonist
Chain of Neuropeptide FF receptor 2 (Q9Y5X5 whole entry): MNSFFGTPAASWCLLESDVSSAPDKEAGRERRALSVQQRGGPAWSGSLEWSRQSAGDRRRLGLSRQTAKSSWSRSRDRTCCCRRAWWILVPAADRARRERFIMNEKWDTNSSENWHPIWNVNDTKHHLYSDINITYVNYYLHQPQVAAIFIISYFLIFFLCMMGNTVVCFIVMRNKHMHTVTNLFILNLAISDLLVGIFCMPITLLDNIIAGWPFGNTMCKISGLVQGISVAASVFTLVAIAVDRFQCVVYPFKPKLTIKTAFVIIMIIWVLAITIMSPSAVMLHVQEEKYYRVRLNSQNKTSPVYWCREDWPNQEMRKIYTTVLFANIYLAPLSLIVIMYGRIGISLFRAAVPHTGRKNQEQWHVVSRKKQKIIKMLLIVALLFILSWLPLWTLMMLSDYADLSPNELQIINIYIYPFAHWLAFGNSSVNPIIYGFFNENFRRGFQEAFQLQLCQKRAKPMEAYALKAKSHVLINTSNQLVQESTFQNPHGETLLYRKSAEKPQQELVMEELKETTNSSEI

[17] = target: T1, Delta-type opioid receptor; test: Agonist activity at DOR (unknown origin) expressed in HEK293-A cells assessed as inhibition of forskolin-induced cAMP accumulation preincubated for 30 mins in presence of 3-isobutyl-1-methylxanthine followed by forskolin and compound addition by competitive PKA binding assay; format: functional, cell-based
Mus musculus [18] = test: Antinociceptive activity against icv dosed Kunming mouse model of thermal-induced nociception assessed as prolongation of tail-flick latency period measured up to 240 mins by tail-flick test; format: functional; conditions: time min <=240
[19] = Half life in Kunming mouse at 868.1 nmol/kg, iv measured up to 120 mins by LC-MS/MS analysis; format: ADME, organism-based; conditions: in vivo
Mus musculus [20] = test: Antinociception activity in po dosed Kunming mouse model of sciatic nerve CCI-induced neuropathic pain assessed as reduction in mechanical hypersensitivity by measuring reduction in paw withdrawl threshold measured up to 180 mins by Von Frey test; format: functional; conditions: 3 h, time min <=180
Mus musculus [21] = test: Antinociceptive activity against Kunming mouse model of thermal-induced nociception assessed as prolongation of tail-flick latency period at 0.5 pmol, icv in presence of RF9 measured up to 240 mins by tail-flick test; format: functional, organism-based; conditions: time min <=240
Mus musculus [22] = test: Antinociceptive activity against Kunming mouse model of thermal-induced nociception assessed as prolongation of tail-flick latency period at 8.68 nmol/kg, sc in presence of NTI at 1 mg/kg, sc measured up to 240 mins by tail-flick test; format: functional, organism-based; conditions: time min <=240
[23] = Toxicity in Kunming mouse assessed as effect on arterial partial pressure of oxygen at 868.1 nmol/kg, po measured up to 30 mins by blood gas analyzer; format: organism-based; conditions: in vivo, 0.5 h
[24] = Clearance in Kunming mouse at 868.1 nmol/kg, iv measured up to 120 mins by LC-MS/MS analysis; format: ADME, organism-based; conditions: in vivo
Mus musculus [25] = test: Antinociceptive activity against sc dosed Kunming mouse model of thermal-induced nociception assessed as fold shift in duration of analgesic effect by tail-flick test relative to DN-9; format: functional
Mus musculus [26] = test: Antinociceptive activity against Kunming mouse model of thermal-induced nociception assessed as prolongation of tail-flick latency period at 8.68 nmol/kg, po in presence of beta-FNA at 1 mg/kg, ip measured up to 240 mins by tail-flick test; format: functional, organism-based; conditions: time min <=240
[27] = Toxicity in Kunming mouse assessed as effect on arterial pH at 868.1 nmol/kg, po measured up to 30 mins by blood gas analyzer; format: organism-based; conditions: in vivo, 0.5 h
[28] = Cmax in Kunming mouse at 868.1 nmol/kg, po measured up to 120 mins by LC-MS/MS analysis; format: ADME, organism-based; design: route oral, dose 868.1 nmol/kg, time <=120; conditions: in vivo
[29] = Absolute oral bioavailability in Kunming mouse at 868.1 nmol/kg measured up to 120 mins by LC-MS/MS analysis; format: ADME, organism-based; conditions: in vivo
Mus musculus [30] = test: Antinociceptive activity against Kunming mouse model of thermal-induced nociception assessed as prolongation of tail-flick latency period at 8.68 nmol/kg, sc in presence of Nal at 1 mg/kg, sc measured up to 240 mins by tail-flick test; format: functional, organism-based; conditions: time min <=240
Mus musculus [31] = test: Antinociceptive activity against Kunming mouse model of thermal-induced nociception assessed as prolongation of tail-flick latency period at 8.68 nmol/kg, po measured up to 240 mins by tail-flick test; format: functional, organism-based; conditions: time min <=240
Mus musculus [32] = test: Antinociceptive activity in Kunming mouse assessed as analgesic tolerance administered subcutaneously once daily for 8 days by tail flick test; format: functional, organism-based; conditions: time 8.0 day

With `CN1C(=O)CNC(=O)[C@H](NC(=O)[C@@H](N)Cc2ccc(O)cc2)CCCCNC(=O)C[C@@H](C(=O)N2CCC[C@H]2C(=O)N[C@@H](CCC(N)=O)C(=O)N[C@@H](CCCNC(=N)N)C(=O)N[C@@H](Cc2ccccc2)C(N)=O)NC(=O)[C@@H]1Cc1ccccc1` (H-Y[dK]G[NMeF]DPQRF-NH2; lactam 2-5) the Activity [1] was “Non-Toxic”, the EC50 [2] was 0.58 µM and the Activity [3] was over 50%. For the same compound, the Activity [4] was “Non-Toxic”, the MPE (Mus musculus [5]) was 89.7% and the Emax [6] was 56.1%. For the same compound, the Activity [7] was “Non-Toxic”, the half-life [8] was 3.13 h and the Activity (Mus musculus [9]) was “inactive”. The ED50 (Mus musculus [10]) was 0.00028 µmol/kg, the Activity [11] was “Non-Toxic” and the Activity (Mus musculus [12]) was “inactive”. For the same compound, the Activity [13] was “Non-Toxic”, the Activity [14] was “Non-Toxic” and the Activity (Mus musculus [15]) was “Active”. It also gave an Emax [16] of 59.5%, an EC50 [17] of 0.546 µM and an ED50 (Mus musculus [18]) of 0.63 pmol. For the same compound, the half-life [19] was 0.468 h, the ED50 (Mus musculus [20]) was 0.00334 µmol/kg and the Activity (Mus musculus [21]) was “Active”. The Activity (Mus musculus [22]) was “Active”, the Activity [23] was “Non-Toxic” and the clearance [24] was 30 mL/min/kg. For the same compound, the “fold change (FC)” value (Mus musculus [25]) was 2.7, the Activity (Mus musculus [26]) was “inactive” and the Activity [27] was “Non-Toxic”. The Cmax [28] was 215 ng/mL, the bioavailability [29] was 43.8% and the Activity (Mus musculus [30]) was “inactive”. The Activity (Mus musculus [31]) was “Active” and the Activity (Mus musculus [32]) was “inactive”.
